The values that follow come from patent publication US20200024234A1, “RADIOPHARMACEUTICAL COMPLEXES” (LUMIPHORE, INC., priority 2009, published 2020).

{NH2C3} = aminopropyl group attached via phosphodiester linkage

The conditions of data set [1]: cited from earlier work.
The conditions of data set [2]: in vivo; cited from earlier work.
For data set [3] the following is noted: thorium(IV) complexes; cited from earlier work.
Data set [4] is described as follows: Gel electrophoresis mobility shift assay of complexation with metal cations. From the text: LUMI4® is an isophthalamide class macrocyclic chelate that selectively coordinates to metal cations including those of the lanthanide series. For use in certain applications, such as acting as a bifunctional chelating agent to attach a radioisotope to a site-directing molecule, it is necessary that the chelate be able to coordinate to the metal ion of interest in a kinetically facile and thermodynamically stable manner. […] In this experiment, a conjugate of LUMI4® with a small (18 base length) DNA oligomer was treated with a solution containing a metal cation. The electrophoretic mobility of the conjugate on a polyacrylamide gel was then compared with that of the conjugate which was not exposed to the solution of metal cation. […] To provide an additional comparison, the gel electrophoretic mobility of the DNA oligomer that was not conjugated to LUMI4® was measured with and without exposure to the metal cation solution under identical conditions.
In particular, a solution of DNA oligomer (6 μL, 5 μM, all concentrations final) was mixed with a solution of metal cation (2 μL, 250 μM) or an equal volume of water. The solution was incubated at 55° C. for five minutes, whereupon the solutions were allowed to cool to ambient temperature and a solution of 50% formamide (7 μL) was added. The resulting solution was again heated to 55° C. for five minutes and then cooled to −20° C. briefly. […]

As to `O=C(NCCCN(CCCCN(CCCNC(=O)c1cccc(=O)n1O)C(=O)c1cccc(=O)n1O)C(=O)c1cccc(=O)n1O)c1cccc(=O)n1O` [3,4,3-LI(1,2-HOPO)], the effective dosage in data set [1] (in vivo) was 0.01 to 0.1 µmol/kg. The “removal of Th(IV), Pu(IV) or Am(III) from the wound site and body compared with CaNa3-DTPA” value in data set [1] (injected ip or infiltrated into a wound) was “much more effective”. In data set [1] (oral), the oral activity result is on record as “useful oral activity”. The “removal of injected or inhaled Pu(IV) and Am(III) compared with CaNa3-DTPA” value in data set [1] (rodents, injected, infused or oral) is listed as “removes more”. Besides, the “toxicity at effective dosage” value in data set [2] was “acceptably low toxicity”.

With `O=C(O)CN(CCN(CC(=O)O)CC(=O)O)CCN(CC(=O)O)CC(=O)O` [DTPA], the “Log K1” value in data set [3] was 30.34.

`NC(=O)CCCC(=O)NCCCCC1CN2CCNC(=O)c3cccc(c3O)C(=O)NCCN(CCNC(=O)c3cccc(c3O)C(=O)N1)CCN1CCNC(=O)c3cccc(c3O)C(=O)NCCN(CCNC(=O)c3cccc(c3O)C(=O)NCC1)CC2` (centres unmarked) [LUMI4®]: the “stability of metal complex upon electrophoresis in the presence of the competing chelate EDTA” value in data set [4] (LUMI4 conjugated to a DNA oligomer) is recorded as “forms a stable complex”.

As to “unmodified oligonucleotide: DNA 18-base oligonucleotide 5′-AAGGTCATCCATGACAAC-3′ (SEQ ID NO: 1) with 5′-aminopropyl group (DNA, 5' {NH2C3}, backbone not given here)”, the “gel mobility following treatment with the metal cation solution” value in data set [4] (20% polyacrylamide gel, 8 M urea, running buffer with 2 mM EDTA) is given as “unaffected”.
